The results in this text go back to ChEMBL document CHEMBL1149225, “Synthesis and evaluation of substituted 4-alkoxy-2-aminopyridines as novel neuropeptide Y1 receptor antagonists” (Bioorg Med Chem Lett, 2004).

The structures appear in SMILES notation.

The target in one assay is T1, Neuropeptide Y receptor type 1 (Homo sapiens, UniProt P25929).
T1 sequence (P25929 whole entry): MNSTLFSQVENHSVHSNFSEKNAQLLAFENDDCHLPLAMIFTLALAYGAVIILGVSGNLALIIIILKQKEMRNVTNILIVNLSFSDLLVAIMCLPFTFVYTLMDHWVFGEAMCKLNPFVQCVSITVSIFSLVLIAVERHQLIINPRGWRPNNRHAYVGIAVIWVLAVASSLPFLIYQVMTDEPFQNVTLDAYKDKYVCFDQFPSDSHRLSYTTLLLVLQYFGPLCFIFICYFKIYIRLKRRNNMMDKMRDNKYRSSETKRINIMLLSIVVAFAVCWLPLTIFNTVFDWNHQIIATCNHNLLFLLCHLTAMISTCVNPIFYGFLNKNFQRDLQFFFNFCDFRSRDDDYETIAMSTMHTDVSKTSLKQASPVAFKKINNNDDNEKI
Kind of assay: Binding affinity against human recombinant NPY Y1 receptor in CHO/dhFr- cell membranes using [125I]PYY.
Settings: not given
As for `CC/C=C\CCOc1cc(CCc2nc(C)c(CC)s2)nc(NCc2cc(Cl)cc(NC(=O)OC(C)C)c2)c1`, the IC50 came to 4.7 nM.
The same measure, in the same setting: as for `CCc1sc(CCc2cc(OC3CCCC3)cc(NCc3cc(Cl)cc(NC(=O)OC(C)C)c3)n2)nc1C`, the figure is 11 nM.
For the molecule `CCc1sc(CCc2cc(OC(C)C)cc(NCc3cc(Cl)cc(NC(=O)OC(C)C)c3)n2)nc1C`, the IC50 is 12 nM.
Regarding `CCCOc1cc(CCc2nc(C)c(CC)s2)nc(NCc2cc(Cl)cc(NC(=O)OC(C)C)c2)c1`, the IC50 was 17 nM.
As for `CCc1sc(CCc2cc(OC(C)COC)cc(NCc3cc(Cl)cc(NC(=O)OC(C)C)c3)n2)nc1C` (stereo not drawn), the half-inhibitory concentration (IC50) is 8.4 nM.
With `CCc1sc(CCc2cc(OCC(C)(C)C)cc(NCc3cc(Cl)cc(NC(=O)OC(C)C)c3)n2)nc1C`, the IC50 came to 55 nM.
Regarding `CCc1sc(CCc2cc(OCc3ccccc3)cc(NCc3cc(Cl)cc(NC(=O)OC(C)C)c3)n2)nc1C`, the IC50 came out at 237 nM.
Still for that read-out and setting: under `CCCCCOc1cc(CCc2nc(C)c(CC)s2)nc(NCc2cc(Cl)cc(NC(=O)OC(C)C)c2)c1` stands 35 nM; under `CCCCCCCOc1cc(CCc2nc(C)c(CC)s2)nc(NCc2cc(Cl)cc(NC(=O)OC(C)C)c2)c1`, 72 nM.
Still for that read-out and setting: under `CCc1sc(CCc2cc(OCCc3ccccc3)cc(NCc3cc(Cl)cc(NC(=O)OC(C)C)c3)n2)nc1C` stands 30 nM; under `CCOc1cc(CCc2nc(C)c(CC)s2)nc(NCc2cc(Cl)cc(NC(=O)OC(C)C)c2)c1`, 33 nM; under `CCCCOc1cc(CCc2nc(C)c(CC)s2)nc(NCc2cc(Cl)cc(NC(=O)OC(C)C)c2)c1`, 16 nM.
On to `CCc1sc(CCc2cc(OCCCc3ccccc3)cc(NCc3cc(Cl)cc(NC(=O)OC(C)C)c3)n2)nc1C`, for which the half-maximal inhibitory concentration (IC50) turned out to be 20 nM.
On to `CCc1sc(CCc2cc(OC3CCCCC3)cc(NCc3cc(Cl)cc(NC(=O)OC(C)C)c3)n2)nc1C`, for which the IC50 amounted to 29 nM.
For the molecule `CCc1sc(CCc2cc(OC)cc(NCc3cc(Cl)cc(NC(=O)OC(C)C)c3)n2)nc1C`, the IC50 is 234 nM.
Same read-out and setting: under `CCc1sc(CCc2cc(N3CCOCC3)cc(NCc3cc(Cl)cc(NC(=O)OC(C)C)c3)n2)nc1C` stands 1.4 nM; under `CCc1sc(CCc2cc(OC(CC)CC)cc(NCc3cc(Cl)cc(NC(=O)OC(C)C)c3)n2)nc1C`, 5.5 nM; under `CCc1sc(CCc2cc(OCCCc3cccnc3)cc(NCc3cc(Cl)cc(NC(=O)OC(C)C)c3)n2)nc1C`, 6.5 nM.
Regarding `CCCCCCOc1cc(CCc2nc(C)c(CC)s2)nc(NCc2cc(Cl)cc(NC(=O)OC(C)C)c2)c1`, the IC50 turned out to be 63 nM.
As to `CCc1sc(CCc2cc(OC3CCOCC3)cc(NCc3cc(Cl)cc(NC(=O)OC(C)C)c3)n2)nc1C`, the IC50 came out at 4.4 nM.
In the case of `CCc1sc(CCc2cc(OC3CCC3)cc(NCc3cc(Cl)cc(NC(=O)OC(C)C)c3)n2)nc1C`, the IC50 was 11 nM.
As for `CCc1sc(CCc2cc(OCC3(C)CC3)cc(NCc3cc(Cl)cc(NC(=O)OC(C)C)c3)n2)nc1C`, the IC50 worked out at 17 nM.

In another assay the test system is CHO. Kind of assay: Inhibitory concentration against 1 nM NPY induced [Ca2+] increase in CHO/dhFr- cells expressing recombinant human Y1 receptor. The class given is functional, cell-based. The note with it: Cricetulus griseus.
With `CC/C=C\CCOc1cc(CCc2nc(C)c(CC)s2)nc(NCc2cc(Cl)cc(NC(=O)OC(C)C)c2)c1`, the IC50 was found to be 64 nM.
On to `CCc1sc(CCc2cc(OC(C)COC)cc(NCc3cc(Cl)cc(NC(=O)OC(C)C)c3)n2)nc1C` (stereo not drawn), for which the IC50 stood at 59 nM.
The same measure, in the same setting: as for `CCc1sc(CCc2cc(N3CCOCC3)cc(NCc3cc(Cl)cc(NC(=O)OC(C)C)c3)n2)nc1C`, the figure is 2.9 nM.
Take `CCc1sc(CCc2cc(OC(CC)CC)cc(NCc3cc(Cl)cc(NC(=O)OC(C)C)c3)n2)nc1C`: the half-maximal inhibitory concentration (IC50) was 33 nM.
The same measure, in the same setting: as for `CCc1sc(CCc2cc(OCCCc3cccnc3)cc(NCc3cc(Cl)cc(NC(=O)OC(C)C)c3)n2)nc1C`, the figure is 46 nM.
Regarding `CCc1sc(CCc2cc(OC3CCOCC3)cc(NCc3cc(Cl)cc(NC(=O)OC(C)C)c3)n2)nc1C`, the IC50 was found to be 42 nM.
